The results in this text go back to patent US8394742B2, “Methods, compounds and compositions with genotype selective anticancer activity” (The Translation Genomics Research Institute, priority 2005, dated 2013).

Structures are written as SMILES.

One assay concerns caspase-3. Nature of the assay: Caspase-3 activation analysis by Western blot. Type of assay: cell-based, human. Conditions: BxPC-3-vector and BxPC-3-DPC4 cells, 25 μM, 24 hours. As to the method: FIG. 5A provides a graphic depiction of the Annexin V staining. The percentage of cells in the indicated M1 region was 4.6% in the untreated control and 8.2%, in the UA62001-treated (25 μM, 24 hours) BxPC-3 cells. FIG. 5B provides an image of the activation of pro-caspase-3 in BxPC-3 cells after UA62001 treatment. Whole cell extracts were prepared from BxPC-3-vector and BxPC-3-DPC4 cells after UA62001 (25 μM, 24 hours) treatment. Each lane was loaded with 20 μg of total protein. Camptothecin treated Jurkat cell lysate (20 μg) was loaded as the positive control. Lane 1, BxPC-3-DPC4; lane 2, BxPC-3-DPC4-UA62001; lane 3, BxPC-3-vector; lane 4, BxPC-3-vector-UA62001; lane 5, Jurkat-camptothecin.
Whole cell extracts were prepared using Nonidet P-40 (NP-40) lysis buffer (1% IGEPAL CA-630, a substitute for NP-40, 150 mM NaCl, 50 mM Tris-HCl [pH 7.4], 2 mM EDTA). […] Protein concentrations of the lysates or fractionates were determined using the BCA reagents (PIERCE). […] DPC4 protein was detected by a monoclonal antibody (Oncogene Research Products, Boston, Mass.). p21 protein was detected by a polyclonal antibody (Cell Signaling Technology, Beverly, Mass.). Both active and proto-form of the caspas-3 were detected by a polyclonal antibody obtained from BD Pharmingen (BD Biosciences Pharmingen, San Diego, Calif.). β-Actin, which served as a loading control was detected by a monoclonal antibody (Sigma). […]

For another assay, the system named is Forf. Nature of the assay: MTS cell proliferation assay, Forf normal fibroblasts. Type of assay: cell-based, human. The note with it: even at 200 μM. As to the method: (§1) The inhibition of cell proliferation by library compounds was evaluated using the CellTiter 96 Non-Radioactive Cell Proliferation Assay following the protocol recommended by the manufacturer (Promega, Madison Wis.). Briefly, 2000 cells were seeded in each well of 96-well plates in 90 μl growth medium. Cells were allowed to attach overnight followed by addition of 10 μl of serially diluted compounds into the plates. After incubation for 4 days at 37° C. in a humidified incubator, 20 μl of a 20:1 mixture of (3-(4,5-dimethylthiazol-2-yl)-5-(3-carboxymethoxyphenyl)-2-(4-sulfophenyl)-2H-tetrazolium, inner salt (MTS, 2 mg/ml) and an electron coupling reagent, phenazine methosulfate (PMS, 0.92 mg/ml), was added to each well and incubated for 3 hours at 37° C. Absorbance was then measured using the Wallace Victor microplate reader at 490 nm (PerkinElmer, Wellesley, Mass.). Data were expressed as the percentage of cell growth calculated from the absorbance corrected for background absorbance. The surviving fraction of cells was determined by dividing the mean absorbance values of the treated samples by the mean absorbance values of the DMSO control.
After generating the isogenic cell lines for the DPC4 gene, Applicants then carried out a screening process using the cell lines with the aim to identify compounds that selectively kill cells with deficient DPC4 function. […]

A further assay deals with BxPC-3-DPC4 cells. Put plainly: MTS based cell proliferation assay, BxPC-3-DPC4 cells. More on the design: species or system human. The note with it: for IC50: BxPC-3-DPC4 (reexpression of wild-type DPC4), MTS, 4 days. The procedure:
as §1
After generating the isogenic cell lines for the DPC4 gene, Applicants then carried out a screening process using the cell lines with the aim to identify compounds that selectively kill cells with deficient DPC4 function. […] In each round, the anti-proliferative activity of compounds was evaluated in different cell lines using the CellTiter 96 Non-Radioactive Cell Proliferation Assay (Promega). In the Toxicity Screen, compounds were evaluated in the BxPC-3 parental cell line at a single concentration of 10 μM. […] The activities of a compound in the DPC4 isogenic cell lines were calculated and a selectivity index was determined for each concentration (Selectivity index=Percentage cell survival in BxPC-3-DPC4 cells/Percentage cell survival in BxPC-3-vector cells). […] These ten compounds were further evaluated in third round of screening, the Selectivity screening. […]

A further assay concerns HPDE6 (wild-type DPC4). Nature of the assay: MTS cell proliferation assay, HPDE6 cells. The note with it: Homo sapiens. Type of assay: cell-based. As to the method: At the initial screening, compounds are tested in the MTS assay (or other cell proliferation assays such as SRB and Alamar Blue) against the cell line in which the specific gene is either deleted or suppressed by siRNA at a single dose of 10 μM (Toxicity Screening).
Compounds that show more than 50% cell growth inhibition at this concentration are selected to test against both isogenic cell lines (loss-of-function vs. wild type) at three different concentrations (10, 2 and 0.4 μM, Synthetic lethal Screening). Compounds that show a selectivity index ≧5 are selected for next round of screening—Selectivity Screening.
In the Selectivity Screening, compounds are tested against cancer cell lines with a specific loss-of-function mutation and normal cells (HPDE6 and FORF-TERT). Depending on their approximate potency assessed in the Synthetic lethal Screening, compounds are tested in a range of concentrations (8 concentrations per agent) in Selectivity Screening. Compounds that have nM IC50 values in loss-of-function cells and selectivity index values >10 are selected for phenotypic consequence tests and in vivo evaluations in animal models.
The inhibition of cell proliferation by library compounds was evaluated using the CellTiter 96 Non-Radioactive Cell Proliferation Assay following the protocol recommended by the manufacturer (Promega, Madison Wis.). […]

In assay [1] the test system is pancreatic cancer cell lines. Nature of the assay: MTS cell proliferation assay, panel of pancreatic cancer cell lines. Type of assay: cell-based, human. As to the method: as §1
Applicants further examined the anti-proliferative activity of UA62001 in a panel of cell lines including normal cell lines which have wildtype DPC4 and pancreatic cancer lines with either wildtype DPC4 or inactivated DPC4 (Table 1). […]

Regarding `O=C1c2ccccc2C(=O)c2c1ccc1c(=O)n(-c3ccccc3)[nH]c21` [UA62001, 2-phenyl-1H-Naphth [2,3-g]indazole-3,6,11(2H)-trione], the “cleavage of proto-form of caspase-3” value in the assay with caspase-3 is “did not induce the cleavage”. Further, the growth inhibition entry with Forf is on record as “little growth inhibition”. Also, the IC50 is 14.7 ± 4.3 µM in the assay on BxPC-3-DPC4 cells; 25 µM in the assay on BxPC-3-DPC4 cells (Homo sapiens, 96 h); greater than 100 µM with HPDE6 (wild-type DPC4). Besides, the “IC50 values in two more stable clones of BxPC-3-DPC4 cells” value in the assay on BxPC-3-DPC4 cells (two more stable clones, compared with the original clone) is listed as “very similar to that in the original clone”. Moreover, the “IC50 values in pancreatic cancer cell lines” value in assay [1] is recorded as “low μM”.
